One compound from patent US20040186098A1 (Amgen Inc., priority 1997, published 2004) can be followed below.

One test has as its system hair cells. Briefly: Intramiddle ear neomycin-induced ototoxicity, compound given systemically (subcutaneous), hair cell loss. The note with it: 10 mg s.c. at day 0, 2 and 7. The class given is in vivo, guinea pig. Here is the method:
Twenty guinea pigs were treated either with sensorineurotrophic compound or vehicle prior to administration of the ototoxin. Ten of the guinea pigs were subcutaneously injected with freshly made sensorineurotrophic compound solution. On the day of injection, 100 mg of the sensorineurotrophic compound was dissolved in 1 ml of ethanol, then 20% of the Intralipids solution was added to make a final volume of 3 ml. The final sensorineurotrophic compound concentration was 10 mg/0.3 ml. Each animal was subcutaneously injected with 0.3 ml of the sensorineurotrophic compound solution at day 0, day 2 and day 7. Another 10 animals were subcutaneously injected with 0.3 ml of the vehicle (20% Intralipids), individually at day 0, day 2 and day 7.
At day 2, guinea pigs used in this study were administered neomycin or neomycin vehicle in the middle ear.
Animals were anesthetized with intramuscular injection of a mixture of ketamine (80 mg/kg) and xylazine (4 mg/kg). Through a post-auricular incision, the right bulla was identified. A hole was drilled to open the middle ear cavity (care was taken not to injure the tympanic annulus or ossicles). A piece of gelfoam (˜2 mm^3) was soaked with neomycin solution (fresh made at a concentration of 50 mg/ml) and was inserted into the round window niche. The remaining neomycin solution (˜100 μl) was then injected into the middle ear cavity. […]

The subject of test [1] is hair cells in rat organ of Corti explant. Put plainly: Organ of Corti (cochlea) explant culture, hair cell survival after neomycin. The class given is cell-based. Here is the method: The sensorineurotrophic compound stock solution was stored at room temperature and prepared fresh for each culture. The stock solution was diluted in 10 μl of 100% EtOH for every milligram of sensorineurotrophic compound in the stock solution (approximately 250 mM). This solution of 250 mM sensorineurotrophic compound in 100% EtOH was diluted in normal culture medium to working concentrations of 50000 nM, 5000 nM, 500 nM, 50 nM, 5000 pM, 500 pM, 50 pM, 10 pM, 5 pM, 1 pM, 0.5 pM, 0.1 pM, and 0.01 pM. […]
Organ of Corti explants were obtained from P3-P4 Wistar rats. […] The organ of Corti then was transferred to a 35-mm diameter Petri dish containing cold PBS supplemented with glucose and was ready to be cultured. […]
To identify and count hair cells in the organ of Corti, a direct immunostaining method was used to label the actin present naturally in the stereocilia bundles of the hair cells. […] The explants were observed under a Nikon Diaphot-300 inverted fluorescence microscope, using FITC filters and fluorescence optics.
In each cochlea, the number of hair cells was counted in 2-3 sections, 175 μm in length each. Only the sections in the middle turn of the cochlea were analyzed. […]

Take `CCC(C)(C)C(=O)C(=O)N1CCC[C@H]1C(=O)OCCCc1cccnc1` [Compound I]: in the test with hair cells (5 mg neomycin middle ear at day 2, day 16), the “difference in the loss of hair cells between vehicle and treated animals” value is approximately 31%. Also, the hair cell loss entry in the test with hair cells (5 mg neomycin middle ear, vehicle animals about 75%) is “about 45%”. Also, in test [1] (Compound I 0.05 pM together with 0.6 mM neomycin), the surviving hair cells was 31.8%±16.4. Further, the “loss of hair cells” value in test [1] (Compound I 0.05 pM together with neomycin, neomycin alone 95%) was “around 70%”.
